These compounds were tested on HCV replicon (assay: Replicon based assay of HCV replication inhibition (NPT ELISA)). Details: Hepatitis C virus, Huh-7, 72 h, Table I; Huh-7 HCV replicon-containing cells, three days; read-out: Activity.
Assay type: cell-based, Hepatitis C virus
Summary of the method: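 Huh-7 cells carrying a bicistronic HCV replicon (neo, EMCV-IRES-driven NS3–NS5B) treated overnight after seeding with usually 6 concentrations, 10 to 0.03 micromolar, for three days at 37° C without G418. Replication read as NPT level by captured ELISA; matched-DMSO wells and interferon alpha as controls.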

Compound | EC50 [nM]
Clc1ccc(-c2csc(Nc3cccc(Cc4ccccc4)c3)n2)cc1 [compound 38, N-(3-benzylphenyl)-4-(4-chlorophenyl)thiazol-2-amine] | < 1000
FC(F)(F)Oc1ccc(CNc2nc(-c3cccnc3)cs2)cc1 [compound 77, N-(4-(trifluoromethoxy)benzyl)-4-(pyridin-3-yl)thiazol-2-amine] | > 10000
CCCCCCCCc1ccc(Nc2nc(-c3cccnc3)cs2)cc1 [compound 95, N-(4-octylphenyl)-4-(pyridin-3-yl)thiazol-2-amine] | < 1000
CCCCCOc1ccc(Nc2nc(N)cs2)cc1C(F)(F)F [compound 208, N2-(3-(trifluoromethyl)-4-(pentyloxy)phenyl)thiazole-2,4-diamine] | 1000 to 10000
CCCCCOc1ccc(Nc2nc(C(N)=O)cs2)cc1C(F)(F)F [compound 18, 2-(3-(trifluoromethyl)-4-(pentyloxy)phenylamino)thiazole-4-carboxamide] | < 1000
N#Cc1cccc(Nc2nc(-c3ccc(F)cc3)cs2)c1 [compound 55, 3-(4-(4-fluorophenyl)thiazol-2-ylamino)benzonitrile] | > 10000
FC(F)(F)Oc1cccc(CNc2nc(-c3cccnc3)cs2)c1 [compound 76, N-(3-(trifluoromethoxy)benzyl)-4-(pyridin-3-yl)thiazol-2-amine] | > 10000
c1ccc(-c2cccc(CNc3nc(-c4cccnc4)cs3)c2)cc1 [compound 79, N-(3-phenyl-benzyl)-4-(pyridin-3-yl)thiazol-2-amine] | > 10000

Same assay, conditions: Hepatitis C virus, Huh-7, 72 h, Table III; Huh-7 HCV replicon-containing cells, three days; read-out: Activity

Compound | EC50 [nM]
CCCCCCCCOc1ccc(Nc2nc(-c3cncc(C#N)c3)cs2)cc1C(F)(F)F [compound 654, 5-(2-(3-(trifluoromethyl)-4-(octyloxy)phenylamino)thiazol-4-yl)pyridine-3-carbonitrile] | < 1000
FC(F)(F)c1cc(Nc2nc(-c3cncnc3)cs2)ccc1OC1CCCC1 [compound 621, N-(4-(cyclopentyloxy)-3-(trifluoromethyl)phenyl)-4-(pyrimidin-5-yl)thiazol-2-amine] | < 1000
CCCCCCCCOc1ccc(Nc2nc(Cc3ccc(F)c(F)c3)cs2)cc1C(F)(F)F [compound 609, 4-(3,4-difluorobenzyl)-N-(3-(trifluoromethyl)-4-(octyloxy)phenyl)thiazol-2-amine] | 1000 to 10000
CCCCCOc1ccc(Nc2nc(-c3cncc(C(=O)OCC)c3)cs2)cc1C(F)(F)F [compound 603, ethyl 5-(2-(3-(trifluoromethyl)-4-(pentyloxy)phenylamino)thiazol-4-yl)pyridine-3-carboxylate] | 1000 to 10000
CCCCCCCCOc1ccc(Nc2nc(-c3sc(-c4cnccn4)nc3C)cs2)cc1C(F)(F)F [compound 590, N-(3-(trifluoromethyl)-4-(octyloxy)phenyl)-4-(4-methyl-2-(pyrazin-2-yl)thiazol-5-yl)thiazol-2-amine] | < 1000
CCCCCCCCOc1ccc(Nc2nc(-c3ccc(Cl)s3)cs2)cc1C(F)(F)F [compound 582, 4-(5-chlorothiophen-2-yl)-N-(3-(trifluoromethyl)-4-(octyloxy)phenyl)thiazol-2-amine] | < 1000
CCCCCCCCOc1ccc(Nc2nc(-c3cncc(C(=O)O)c3)cs2)cc1 [compound 648, 5-(2-(4-(octyloxy)phenylamino)thiazol-4-yl)pyridine-3-carboxylic acid] | 1000 to 10000
CCCCCOc1ccc(Nc2nc(-c3cnc4ccccc4c3)cs2)cc1C(F)(F)F [compound 538, N-(3-(trifluoromethyl)-4-(pentyloxy)phenyl)-4-(quinolin-3-yl)thiazol-2-amine] | < 1000
FC(F)(F)c1cc(Nc2nccs2)ccc1OCCCC1CCCC1 [compound 622, N-(4-(3-cyclopentylpropoxy)-3-(trifluoromethyl)phenyl)thiazol 2-amine] | < 1000
CCCCCCCCOc1ccc(Nc2nc3c(s2)CCc2ncccc2-3)cc1 [compound 595, 4,5-dihydro-N-(4-(octyloxy)phenyl)thiazolo[4,5-f]quinolin-2-amine] | 1000 to 10000
CCCCCCCCc1ccc(Nc2nc(-c3ccc4[nH]c(=O)oc4c3)cs2)cc1 [compound 549, 6-(2-(4-octylphenylamrno)thiazol-4-yl)benzo[d]oxazol-2(3H)-one] | < 1000

Same assay, conditions: Hepatitis C virus, replicon based assay of HCV replication inhibition; Table II; read-out: Activity

Compound | EC50 [nM]
Cc1sc(Nc2cccnc2)nc1-c1ccc(F)cc1 [compound 349, N-(4-(4-fluorophenyl)-5-methylthiazol-2-yl)pyridin-3-amine] | > 10000
CCCCCOc1ccc(Nc2nc(CN3CCC(O)CC3)cs2)cc1C(F)(F)F [compound 272, 1-((2-(4-(pentyloxy)-3-(trifluoromethyl)phenyl-amino)thiazol-4-yl)methyl)piperidin-4-ol] | < 1000
CCCCCCCCOc1ccc(Nc2nc(CN3CCOCC3)cs2)cc1 [compound 316, 4-(morpholinomethyl)-N-(4-(octyloxy)phenyl)thiazol-2-amine] | 1000 to 10000
CCCCCOc1ccc(Nc2nc(CN3CCC(C(C)(C)N)C3)cs2)cc1F (stereo not shown) [compound 305, 4-((3-(2-aminopropan-2-yl)pyrrolidin-1-yl)methyl)-N-(3-fluoro-4-(pentyloxy)phenyl)thiazol-2-amine] | 1000 to 10000
CCCCCOc1ccc(Nc2nc(-c3c(C)cc(C)nc3C)cs2)cc1C(F)(F)F [compound 445, N-(3-(trifluoromethyl)-4-(pentyloxy)phenyl)-4-(2,4,6-trimethylpyridin-3-yl)thiazol-2-amine] | > 10000
CCCCCCCCOc1ccc(Nc2nc(CN3CCN(C4CCCCCC4)CC3)cs2)cc1 [compound 314, 4-((4-cycloheptylpiperazin-1-yl)methyl)-N-(4-(octyloxy)phenyl)thiazol-2-amine] | < 1000
COc1ccc(-c2nc(Nc3ccc(F)cc3)sc2-c2ccc(OC)cc2)cc1 [compound 356, N-(4-fluorophenyl)-4,5-bis(4-methoxyphenyl)thiazol-2-amine] | 1000 to 10000
Cc1sc(NC(=O)c2ccccc2)nc1-c1ccc(F)cc1 [compound 350, N-(4-(4-fluorophenyl)-5-methylthiazol-2-yl)benzamide] | > 10000
CCCCCCCOc1ccc(Nc2nc(-c3ccccc3O)cs2)cc1 [compound 372, 2-(2-(4-(heptyloxy)phenylamino)thia-zol-4-yl)phenol] | < 1000
CCCCCOc1ccc(Nc2nc(-c3csc(N)n3)cs2)cc1C(F)(F)F [compound 262, 4-(2-aminothiazol-4-yl)-N-(4-(pentyloxy)-3-(trifluoromethyl)phenyl)thia-zol-2-amine] | < 1000
CC(C)COc1ccc(Nc2nc(-c3cccnc3)cs2)cc1C(F)(F)F [compound 239, N-(4-isobutoxy-3-(trifluoromethyl)phenyl)-4-(pyridin-3-yl)thiazol-2-amine] | < 1000
CCCCCOc1ccc(Nc2nc3c(s2)Cc2ccccc2-3)cc1C(F)(F)F [compound 484, N-(3-(trifluoromethyl)-4-(pentyloxy)phenyl)-8H-indeno[1,2-d]thiazol-2-amine] | < 1000
CCCCCCCCOc1ccc(Nc2nc(-c3ccc(C(=O)N(C)C)nc3)cs2)cn1 [compound 468, 5-(2-(6-(octyloxy)pyridin-3-ylamino)thiazol-4-yl)-N,N-dimethylpyridine-2-carboxamide] | 1000 to 10000

Same assay, conditions: Hepatitis C virus, replicon based assay of HCV replication inhibition; Table IV; read-out: Activity

Compound | EC50 [nM]
CCCCCCCCSc1ccc(Nc2nc(-c3cnc(OC)nc3)cs2)cc1C(F)(F)F [compound 777, N-(3-(trifluoromethyl)-4-(octylthio)phenyl)-4-(2-methoxypyrimidin-5-yl)thiazol-2-amine] | < 1000
c1cncc(-c2csc(Nc3ccc(OCCCCc4cccs4)cc3)n2)c1 [compound 922, N-(4-(4-(thiophen-2-yl)butoxy)phenyl)-4-(pyridin-3-yl)thiazol-2-amine] | < 1000
Cc1ccc(Nc2nc(-c3cccnc3)cs2)cc1 [compound 884, 4-(pyridin-3-yl)-N-p-tolylthiazol-2-amine] | > 10000
CCCCCCCCOc1ccc(Nc2nc(-c3csc4nccn34)cs2)cc1C(F)(F)F [compound 807, N-(3-(trifluoromethyl)-4-(octyloxy)phenyl)-4-(imidazo[2,1-b]thiazol-3-yl)thiazol-2-amine] | < 1000
FC(F)(F)c1cc(Nc2nc(-c3cccnc3)cs2)ccc1OCCOc1ccccc1 [compound 848, N-(4-(2-phenoxyethoxy)-3-(trifluoromethyl)phenyl)-4-(pyridin-3-yl)thiazol-2-amine] | < 1000
Fc1ccc(Cn2ccc3ccc(Nc4nc(-c5cccnc5)cs4)cc32)cc1 [compound 867, 1-(4-fluorobenzyl)-N-(4-(pyridin-3-yl)thiazol-2-yl)-1H-indol-6-amine] | < 1000
FC(F)(F)c1cc(Nc2nc(-c3cccnc3)cs2)ccc1OCCCOc1ccccc1 [compound 924, N-(4-(3-phenoxypropoxy)-3-(trifluoromethyl)phenyl)-4-(pyridin-3-yl)thiazol-2-amine] | < 1000
CN(C)c1ccc(-c2csc(Nc3ccc(OC4CCCC4)c(C(F)(F)F)c3)n2)cn1 [compound 735, 5-(2-(4-(cyclopentyloxy)-3-(trifluoromethyl)phenylamino)thiazol-4-yl)-N,N-dimethylpyridin-2-amine] | 1000 to 10000
c1cc(Nc2nc(-c3cccnc3)cs2)cc(-c2cocn2)c1 [compound 749, N-(3-(oxazol-4-yl)phenyl)-4-(pyridin-3-yl)thiazol-2-amine] | > 10000
CN(C)C(=O)c1ccc(Nc2nc(-c3cccnc3)cs2)cc1 [compound 821, 4-(4-(pyridin-3-yl)thiazol-2-ylamino)-N,N-dimethylbenzamide] | > 10000
COc1ncc(-c2csc(Nc3ccc(OCCCC4CCCC4)c(C(F)(F)F)c3)n2)cn1 [compound 803, N-(4-(3-cyclopentylpropoxy)-3-(trifluoromethyl)phenyl)-4-(2-methoxypyrimidin-5-yl)thiazol-2-amine] | < 1000

From US8088806B2 (Achillion Pharmaceuticals, Inc., priority 2005, dated 2012)
